In ChEMBL document CHEMBL1151626, “Diphenylamine, an antihyperglycemic agent from onion and tea” (1984) one finds Activity data, which are given here for two compounds.

Common to all, as to format: functional
What all share (design): scale not given: the % may be the effect or the level left

Assay [1] has as its system Oryctolagus cuniculus. Nature of the assay: Hypoglycemic activity in fasting rabbit assessed as reduction of plasma glucose at 50 mg/kg, po.
Assay [2] deals with Oryctolagus cuniculus. Description: Hypoglycemic activity in glucose-fed rabbit assessed as reduction of plasma glucose at 50 mg/kg, po after 0.5 hr.
The test system of assay [3] is Oryctolagus cuniculus. Nature of the assay: Hypoglycemic activity in glucose-fed rabbit assessed as reduction of plasma glucose at 50 mg/kg, po after 1 hr.
Assay [4] deals with Oryctolagus cuniculus. Nature of the assay: Hypoglycemic activity in glucose-fed rabbit assessed as reduction of plasma glucose at 50 mg/kg, po after 1.5 hrs.
For assay [5], the system named is Oryctolagus cuniculus. Nature of the assay: Hypoglycemic activity in glucose-fed rabbit assessed as reduction of plasma glucose at 50 mg/kg, po after 2 hrs.
Assay [6] deals with Oryctolagus cuniculus. Nature of the assay: Hypoglycemic activity in glucose-fed rabbit assessed as reduction of plasma glucose at 50 mg/kg, po after 2.5 hrs.
Assay [7] relates to Oryctolagus cuniculus. Nature of the assay: Hypoglycemic activity in rabbit assessed as reduction of plasma glucose at 50 mg/kg, po after 2 hrs.
The subject of assay [8] is Oryctolagus cuniculus. Description: Hypoglycemic activity in fasting rabbit assessed as reduction of plasma glucose at 10 mg/kg, po.
The subject of assay [9] is Oryctolagus cuniculus. Nature of the assay: Hypoglycemic activity in glucose-fed rabbit assessed as reduction of plasma glucose at 10 mg/kg, po after 0.5 hr.
Assay [10] has as its system Oryctolagus cuniculus. Nature of the assay: Hypoglycemic activity in glucose-fed rabbit assessed as reduction of plasma glucose at 10 mg/kg, po after 1 hr.
In assay [11] the test system is Oryctolagus cuniculus. Description: Hypoglycemic activity in glucose-fed rabbit assessed as reduction of plasma glucose at 10 mg/kg, po after 1.5 hrs.
Assay [12] has as its system Oryctolagus cuniculus. Nature of the assay: Hypoglycemic activity in glucose-fed rabbit assessed as reduction of plasma glucose at 10 mg/kg, po after 2 hrs.
Assay [13] concerns Oryctolagus cuniculus. Description: Hypoglycemic activity in glucose-fed rabbit assessed as reduction of plasma glucose at 10 mg/kg, po after 2.5 hrs.
The test system of assay [14] is Oryctolagus cuniculus. Nature of the assay: Hypoglycemic activity in rabbit assessed as reduction of plasma glucose at 10 mg/kg, po after 2 hrs.

In the case of `CCCCNC(=O)NS(=O)(=O)c1ccc(C)cc1` [TOLBUTAMIDE], the Activity in the assay on Oryctolagus cuniculus [1] turned out to be 104.2 mg%; in the assay on Oryctolagus cuniculus [2], 129 mg%; in the assay with Oryctolagus cuniculus [3] it was 154.3 mg%; with Oryctolagus cuniculus [4] it was 125.2 mg%; with Oryctolagus cuniculus [5], 104 mg%; in the assay on Oryctolagus cuniculus [6], 95.1 mg%. In addition, in the assay with Oryctolagus cuniculus [7], the Activity was found to be 44.1%.

As for `c1ccc(Nc2ccccc2)cc1` [DIPHENYLAMINE], the Activity is recorded as 102.2 mg% with Oryctolagus cuniculus [8]; 140.2 mg% with Oryctolagus cuniculus [9]; 154.6 mg% in the assay with Oryctolagus cuniculus [10]; 80.2 mg% with Oryctolagus cuniculus [11]; 71.8 mg% in the assay with Oryctolagus cuniculus [12]; 77.2 mg% with Oryctolagus cuniculus [13]. The Activity in the assay with Oryctolagus cuniculus [14] amounted to 61.4%.
